Assay results from patent US9796753B2, “N-substituted indenoisoquinolines and syntheses thereof” (Purdue Research Foundation, priority 2005, dated 2017).
Where two headings read alike, the source gives them in different places.

How the values were obtained:
Type in all cases: cell-based
[1] = test system: breast MDA-MB-435; experiment: COMPARE screening (NCI human cancer cell line screen), cytotoxicity GI50
Protocol: COMPARE screening. The compounds described herein were examined for antiproliferative activity against the human cancer cell lines in the National Cancer Institute screen (COMPARE screening), in which the activity of each compound was evaluated with approximately 55 different cancer cell lines of diverse tumor origins. […] Therefore, the MGM value represents an overall assessment of toxicity of the compound across numerous cell lines.

[2] = test system: all human cancer cell lines successfully tested; experiment: NCI screen mean graph midpoint (MGM) for growth inhibition
How it was run: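 NCI60 panel cells exposed to compound at 100, 10, 1, 0.1 and 0.01 μM for 48 h, then sulforhodamine B staining. Percentage growth versus control plotted against log concentration; MGM is the midpoint across all lines tested.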

[3] = test system: renal SN12C; experiment: COMPARE screening (NCI human cancer cell line screen), cytotoxicity GI50
How it was run: (§1)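 Read-out is sulforhodamine B optical density, expressed as a ratio to untreated control and plotted as percentage growth against log10 compound concentration. Exposure lasted 48 h at five concentrations from 100 to 0.01 μM in the NCI60 screen.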

[4] = test system: CNS SF-539; experiment: as above
How it was run: as §1

[5] = test system: lung HOP-62; experiment: as above
How it was run: as §1

[6] = test system: colon HCT-116; experiment: as above
How it was run: as §1

[7] = test system: prostate DU-145; experiment: as above
How it was run: as §1

[8] = test system: ovarian OVCAR-3; experiment: as above
How it was run: as §1

[9] = test system: melanoma UACC-62; experiment: as above
How it was run: as §1

[10] = breast MDA-MB-435, concentration corresponding to 50% growth inhibition, read-out: cytotoxicity (GI50 in μM) breast MDA-MB-435
[11] = all human cancer cell lines successfully tested
[12] = renal SN12C, concentration corresponding to 50% growth inhibition, read-out: cytotoxicity (GI50 in μM) renal SN12C
[13] = CNS SF-539, concentration corresponding to 50% growth inhibition, read-out: cytotoxicity (GI50 in μM) CNS SF-539
[14] = lung HOP-62, concentration corresponding to 50% growth inhibition, read-out: cytotoxicity (GI50 in μM) lung HOP-62
[15] = colon HCT-116, concentration corresponding to 50% growth inhibition, read-out: cytotoxicity (GI50 in μM) colon HCT-116
[16] = prostate DU-145, concentration corresponding to 50% growth inhibition, read-out: cytotoxicity (GI50 in μM) prostate DU-145
[17] = ovarian OVCAR-3, concentration corresponding to 50% growth inhibition, read-out: cytotoxicity (GI50 in μM) ovarian OVCAR-3
[18] = melanoma UACC-62, concentration corresponding to 50% growth inhibition, read-out: cytotoxicity (GI50 in μM) melanoma UACC-62
[19] = Table 1, average GI50 of all cell lines tested (approximately 55), test range 10^−8 to 10^−4 molar
[20] = Homo sapiens, MDA-MB-435, read-out: cytotoxicity (GI50) breast MDA-MB-435
[21] = Homo sapiens, SN12C, read-out: cytotoxicity (GI50) renal SN12C
[22] = Homo sapiens, CNSSF-539, read-out: cytotoxicity (GI50) CNS SF-539
[23] = Homo sapiens, HOP-62, read-out: cytotoxicity (GI50) lung HOP-62
[24] = Homo sapiens, HCT-116, read-out: cytotoxicity (GI50) colon HCT-116
[25] = Homo sapiens, DU-145, read-out: cytotoxicity (GI50) prostate DU-145
[26] = Homo sapiens, OVCAR-3, read-out: cytotoxicity (GI50) ovarian OVCAR-3
[27] = Homo sapiens, UACC-62, read-out: cytotoxicity (GI50) melanoma UACC-62

SMILES	GI50 [1] [µM]	MGM (mean graph midpoint for growth inhibition) [2, 19] [µM]	GI50 [3] [µM]	GI50 [4] [µM]	GI50 [5] [µM]	GI50 [6] [µM]	GI50 [7] [µM]	GI50 [8] [µM]	GI50 [9] [µM]	also measured
O=C(O)C(F)(F)F.O=C(O)C(F)(F)F.O=C1c2ccccc2-c2c1c1ccc([N+](=O)[O-])cc1c(=O)n2CCCNCCCNCCCn1c2c(c3ccc([N+](=O)[O-])cc3c1=O)C(=O)c1ccccc1-2 [Compound 14n, Bis-1,3-{(5,6-dihydro-5,1-diketo-3-nitro-11H-indeno[1,2-c]isoquinoline)-6-propylamino}propane Bis{trifluoroacetate)]										GI50 [1, 10]: 3.89 µM; MGM (mean graph midpoint for growth inhibition) [2, 11]: 1.50 ± 0.24 µM; GI50 [3, 12]: 1.17 µM; GI50 [4, 13]: 1.17 µM; GI50 [5, 14]: 3.02 µM; GI50 [6, 15]: 1.45 µM; GI50 [7, 16]: 0.912 µM; GI50 [8, 17]: 2.29 µM; GI50 [9, 18]: 1.78 µM
CC(C)(C)OC(=O)N(CCCn1c2c(c3ccccc3c1=O)C(=O)c1ccccc1-2)CCN(CCCn1c2c(c3ccccc3c1=O)C(=O)c1ccccc1-2)C(=O)OC(C)(C)C [Compound 13b, Bis-1,2-{(5,6-dihydro-5,11-diketo-11H-indeno[1,2-c]isoquinoline)-(6-propyl-tert-BOCamino)}ethane]										GI50 [1, 10]: > 50.1 µM; MGM (mean GI50 across cell lines) [2, 11]: 28.2 µM; GI50 [3, 12]: 39.8 µM; GI50 [4, 13]: > 50.1 µM; GI50 [5, 14]: 20 µM; GI50 [6, 15]: 14.1 µM; GI50 [7, 16]: > 50.1 µM; GI50 [8, 17]: 13.2 µM; GI50 [9, 18]: 45.7 µM
COc1ccc2c(c1)C(=O)c1c-2n(CCCN(C)C)c(=O)c2ccccc12 [Compound 5bq]	0.617	0.300 ± 0.072	0.245	0.24	0.078	0.102	0.257	0.427	1	
O=C1c2ccccc2-c2oc(=O)c3ccccc3c21 [Compound 4d, Benz[d]indeno[1,2-b]pyran-5,11-dione]										GI50 [1, 20]: > 100 µM; MGM (mean GI50 across cell lines) [2, 19]: >100 µM; GI50 [3, 21]: > 100 µM; GI50 [4, 22]: > 100 µM; GI50 [5, 23]: > 100 µM; GI50 [6, 24]: > 100 µM; GI50 [7, 25]: > 100 µM; GI50 [8, 26]: > 100 µM; GI50 [9, 27]: > 100 µM
O=C1c2ccccc2-c2c1c1ccc([N+](=O)[O-])cc1c(=O)n2CCCn1ccnc1 [Compound 5f]	2.17	0.370 ± 0.28	0.015	0.016	0.19	0.274	0.017	0.864	0.012	
CN(C)CCCn1c2c(c3cc4c(cc3c1=O)OCO4)C(=O)c1ccccc1-2 [Compound 5b]	3.02		0.023	2.69	< 0.01	< 0.01	2.04	2.63	0.3	MGM (mean GI50 across cell lines) [2, 19]: 0.525 µM
O=C1c2ccccc2-c2c1c1ccccc1c(=O)n2CCCNCCCn1c2c(c3ccccc3c1=O)C(=O)c1ccccc1-2 [Compound 12c, Bis{(5,6-dihydro-5,11-diketo-11H-indeno[1,2-c]isoquinoline)-6-propyl}amine]	8.91		1.55	3.63	0.794	0.55	1	2.95	6.61	MGM (mean graph midpoint for growth inhibition) [2, 11]: 4.28 ± 1.89 µM
Cl.NCCCCCn1c2c(c3ccccc3c1=O)C(=O)c1ccccc1-2 [Compound 5ao, 6-(5-Aminopentyl)-5,6-dihydro-5,11-diketo-11H-indeno[1,2-c]isoquinoline Hydrochloride]		0.471 ± 0.054								GI50 [1, 20]: 1.35 µM; GI50 [3, 21]: 0.398 µM; GI50 [4, 22]: 0.871 µM; GI50 [5, 23]: 0.288 µM; GI50 [6, 24]: 0.2 µM; GI50 [7, 25]: 0.347 µM; GI50 [8, 26]: 0.708 µM; GI50 [9, 27]: 1.35 µM
COc1ccc2c(c1)C(=O)c1c-2n(CCCn2ccnc2)c(=O)c2cc([N+](=O)[O-])ccc12 [Compound 5br]	< 0.01	0.019 ± 0.004	< 0.01	< 0.01	< 0.01	< 0.01	< 0.01	0.02	< 0.01	
